Experimental findings from patent US8648066B2 (Exelixis, Inc., priority 2009, dated 2014) are described below.

Each structure is given as a SMILES string. A value given as a limit tells only on which side of the number the result lay.

The target in this experiment is mTOR/GbL/Raptor (mTORC1) (Homo sapiens, UniProt P42345). The experiment is described as follows: mTOR/GbL/Raptor (mTORC1) ELISA assay. The following applies: phosphorylation of 4E-BP1; 0.2 nM mTORC1, 10 μM ATP; read-out: IC50 in this assay (mTORC1 ELISA). In kind it is biochemical. In outline:
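ELISA read-out: phospho-4E-BP1 captured on Ni-chelate plates and detected with anti-phospho antibody plus HRP-anti-IgG luminescence. The kinase step ran 120 min at ambient temperature with 0.2 nM human mTORC1, 10 µM ATP, 50 nM His-4E-BP1, 10 mM MnCl2, pH 7.2 HEPES.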
Background: An ELISA detects its analyte on a solid surface through an enzyme-linked reagent.
Regarding `CN(C)S(=O)(=O)c1cc(-c2ccc3c(c2)CN(c2ncnc4c2CC(C)(C)CC4)CCO3)cnc1N` [Example 380, 2-amino-5-[4-(6,6-dimethyl-5,6,7,8-tetrahydroquinazolin-4-yl)-2,3,4,5-tetrahydro-1,4-benzoxazepin-7-yl]-N,N-dimethylpyridine-3-sulfonamide], the concentration for half-maximal inhibition (IC50) was 10 to 50 nM.

In the case of `CN1CCC(CNS(=O)(=O)c2cc(-c3ccc4c(c3)CN(c3ncnc5c3CC(C)(C)CC5)CCO4)cnc2N)CC1` [Example 381, 2-amino-5-[4-(6,6-dimethyl-5,6,7,8-tetrahydroquinazolin-4-yl)-2,3,4,5-tetrahydro-1,4-benzoxazepin-7-yl]-N-[(1-methylpiperidin-4-yl)methyl]pyridine-3-sulfonamide], the 50% inhibitory concentration (IC50) was in the range of 250 to 1000 nM.

As for `CC1(C)CCc2ncnc(N3CCOc4ccc(-c5cnc(N)c(S(=O)(=O)NC[C@H]6CCCN6)c5)cc4C3)c2C1` [Example 382, 2-amino-5-[4-(6,6-dimethyl-5,6,7,8-tetrahydrquinazolin-4-yl)-2,3,4,5-tetrahydro-1,4-benzoxazepin-7-yl]-N-[(2R)-pyrrolidin-2-ylmethyl]pyridine-3-sulfonamide], the IC50 lay in the range of 10 to 50 nM.

`CC1(C)CCc2ncnc(N3CCOc4ccc(-c5cnc(N)c(S(=O)(=O)NC[C@@H]6CCCN6)c5)cc4C3)c2C1` [Example 383, 2-amino-5-[4-(6,6-dimethyl-5,6,7,8-tetrahydroquinazolin-4-yl)-2,3,4,5-tetrahydro-1,4-benzoxazepin-7-yl]-N-[(2S)-pyrrolidin-2-ylmethyl]pyridine-3-sulfonamide]: the IC50 is 50 to 250 nM.

Take `CC1(C)CCc2ncnc(N3CCOc4ccc(-c5cnc(N)c(S(=O)(=O)NC[C@H]6C[C@H]7CNC[C@H]7C6)c5)cc4C3)c2C1` [Example 384, 2-amino-5-[4-(6,6-dimethyl-5,6,7,8-tetrahydroquinazolin-4-yl)-2,3,4,5-tetrahydro-1,4-benzoxazepin-7-yl]-N-[(3aR,5r,6aS)-octahydrocyclopenta[c]pyrrol-5-ylmethyl]pyridine-3-sulfonamide]: the half-inhibitory concentration (IC50) lay in the range of 50 to 250 nM.

For the molecule `CN1CC[C@@H](NS(=O)(=O)c2cc(-c3ccc4c(c3)CN(c3ncnc5c3CC(C)(C)CC5)CCO4)cnc2N)C1` [Example 385, 2-amino-5-[4-(6,6-dimethyl-5,6,7,8-tetrahydroquinazolin-4-yl)-2,3,4,5-tetrahydro-1,4-benzoxazepin-7-yl]-N-[(3R)-1-methylpyrrolidin-3-yl]pyridine-3-sulfonamide], the half-inhibitory concentration (IC50) lay in the range of 50 to 250 nM.

In the case of `CC1(C)CCc2ncnc(N3CCOc4ccc(-c5cnc(N)c(S(=O)(=O)NC[C@@H]6CCCNC6)c5)cc4C3)c2C1` [Example 386, 2-amino-5-[4-(6,6-dimethyl-5,6,7,8-tetrahydroquinazolin-4-yl)-2,3,4,5-tetrahydro-1,4-benzoxazepin-7-yl]-N-[(3R)-piperidin-3-ylmethyl]pyridine-3-sulfonamide], the IC50 lay in the range of 250 to 1000 nM.

Regarding `CC1(C)CCc2ncnc(N3CCOc4ccc(-c5cnc(N)c(S(=O)(=O)N[C@@H]6CCNC6)c5)cc4C3)c2C1` [Example 387, 2-amino-5-[4-(6,6-dimethyl-5,6,7,8-tetrahydroquinazolin-4-yl)-2,3,4,5-tetrahydro-1,4-benzoxazepin-7-yl]-N-[(3R)-pyrrolidin-3-yl]pyridine-3-sulfonamide], the IC50 was at most 10 nM.

As to `CC1(C)CCc2ncnc(N3CCOc4ccc(-c5cnc(N)c(S(=O)(=O)NC[C@@H]6CCNC6)c5)cc4C3)c2C1` [Example 388, 2-amino-5-[4-(6,6-dimethyl-5,6,7,8-tetrahydroquinazolin-4-yl)-2,3,4,5-tetrahydro-1,4-benzoxazepin-7-yl]-N-[(3R)-pyrrolidin-3-ylmethyl]pyridine-3-sulfonamide], the IC50 was in the range of 10 to 50 nM.

On to `CC1(C)CCc2ncnc(N3CCOc4ccc(-c5cnc(N)c(S(=O)(=O)NC[C@H]6CCCNC6)c5)cc4C3)c2C1` [Example 389, 2-amino-5-[4-(6,6-dimethyl-5,6,7,8-tetrahydroquinazolin-4-yl)-2,3,4,5-tetrahydro-1,4-benzoxazepin-7-yl]-N-[(3S)-piperidin-3-ylmethyl]pyridine-3-sulfonamide], for which the 50% inhibitory concentration (IC50) lay within 10 to 50 nM.

Regarding `CC1(C)CCc2ncnc(N3CCOc4ccc(-c5cnc(N)c(S(=O)(=O)N[C@H]6CCNC6)c5)cc4C3)c2C1` [Example 390], the half-inhibitory concentration (IC50) is 10 to 50 nM.

Turning to `CC1(C)CCc2ncnc(N3CCOc4ccc(-c5cnc(N)c(S(=O)(=O)NC[C@H]6CCNC6)c5)cc4C3)c2C1` [Example 391, 2-amino-5-[4-(6,6-dimethyl-5,6,7,8-tetrahydroquinazolin-4-yl)-2,3,4,5-tetrahydro-1,4-benzoxazepin-7-yl]-N-[(3S)-pyrrolidin-3-ylmethyl]pyridine-3-sulfonamide], the IC50 was 10 to 50 nM.

On to `COCCNS(=O)(=O)c1cc(-c2ccc3c(c2)CN(c2ncnc4c2CC(C)(C)CC4)CCO3)cnc1N` [Example 392, 2-amino-5-[4-(6,6-dimethyl-5,6,7,8-tetrahydroquinazolin-4-yl)-2,3,4,5-tetrahydro-1,4-benzoxazepin-7-yl]-N-[2-(methyloxy)ethyl]pyridine-3-sulfonamide], for which the IC50 lay in the range of 50 to 250 nM.

On to `CN1CCC[C@H](CNS(=O)(=O)c2cc(-c3ccc4c(c3)CN(c3ncnc5c3CC(C)(C)CC5)CCO4)cnc2N)C1` [Example 393, 2-amino-5-[4-(6,6-dimethyl-5,6,7,8-tetrahydroquinazolin-4-yl)-2,3,4,5-tetrahydro-1,4-benzoxazepin-7-yl]-N-{[(3S)-1-methylpiperidin-3-yl]methyl}pyridine-3-sulfonamide], for which the 50% inhibitory concentration (IC50) was 50 to 250 nM.

As to `CN1CC[C@H](CNS(=O)(=O)c2cc(-c3ccc4c(c3)CN(c3ncnc5c3CC(C)(C)CC5)CCO4)cnc2N)C1` [Example 394, 2-amino-5-[4-(6,6-dimethyl-5,6,7,8-tetrahydroquinazolin-4-yl)-2,3,4,5-tetrahydro-1,4-benzoxazepin-7-yl]-N-{[(3S)-1-methylpyrrolidin-3-yl]methyl}pyridine-3-sulfonamide], the IC50 is 50 to 250 nM.

As to `CCN(C)S(=O)(=O)c1cc(-c2ccc3c(c2)CN(c2ncnc4c2CC(C)(C)CC4)CCO3)cnc1N` [Example 395, 2-amino-5-[4-(6,6-dimethyl-5,6,7,8-tetrahydroquinazolin-4-yl)-2,3,4,5-tetrahydro-1,4-benzoxazepin-7-yl]-N-ethyl-N-methylpyridine-3-sulfonamide], the half-maximal inhibitory concentration (IC50) fell in the range of 50 to 250 nM.

On to `CCNS(=O)(=O)c1cc(-c2ccc3c(c2)CN(c2ncnc4c2CC(C)(C)CC4)CCO3)cnc1N` [Example 396, 2-amino-5-[4-(6,6-dimethyl-5,6,7,8-tetrahydroquinazolin-4-yl)-2,3,4,5-tetrahydro-1,4-benzoxazepin-7-yl]-N-ethylpyridine-3-sulfonamide], for which the 50% inhibitory concentration (IC50) was in the range of 10 to 50 nM.

For `CNS(=O)(=O)c1cc(-c2ccc3c(c2)CN(c2ncnc4c2CC(C)(C)CC4)CCO3)cnc1N` [Example 397, 2-amino-5-[4-(6,6-dimethyl-5,6,7,8-tetrahydroquinazolin-4-yl)-2,3,4,5-tetrahydro-1,4-benzoxazepin-7-yl]-N-methylpyridine-3-sulfonamide], the IC50 is at most 10 nM.

With `CC1(C)CCc2ncnc(N3CCOc4ccc(-c5cnc(N)c(S(=O)(=O)NC6CCNCC6)c5)cc4C3)c2C1` [Example 398], the half-inhibitory concentration (IC50) is 50 to 250 nM.

For the molecule `CC1(C)CCc2ncnc(N3CCOc4ccc(-c5cnc(N)c(S(N)(=O)=O)c5)cc4C3)c2C1` [Example 399, 2-amino-5-[4-(6,6-dimethyl-5,6,7,8-tetrahydroquinazolin-4-yl)-2,3,4,5-tetrahydro-1,4-benzoxazepin-7-yl]pyridine-3-sulfonamide], the IC50 is at most 10 nM.

As to `CC1(C)CCc2ncnc(N3CCOc4ccc(-c5cnc(N)c(S(=O)(=O)O)c5)cc4C3)c2C1` [Example 400, 2-amino-5-[4-(6,6-dimethyl-5,6,7,8-tetrahydrquinazolin-4-yl)-2,3,4,5-tetrahydro-1,4-benzoxazepin-7-yl]pyridine-3-sulfonic acid], the IC50 is 50 to 250 nM.

Take `CNS(=O)(=O)c1cc(-c2ccc3c(c2)CN(c2ncnc4c2CC(C)(C)C=C4)CCO3)cnc1N` [Example 401, 2-amino-5-[4-(6,6-dimethyl-5,6-dihydroquinazolin-4-yl)-2,3,4,5-tetrahydro-1,4-benzoxazepin-7-yl]-N-methylpyridine-3-sulfonamide]: the concentration for half-maximal inhibition (IC50) is at most 10 nM.

In the case of `CC1(C)CCc2ncnc(N3CCOc4ccc(-c5cnc(N)c(S(=O)(=O)NCC(O)CO)c5)cc4C3)c2C1` (centres unmarked) [Example 402, 2-amino-N-(2,3-dihydroxypropyl)-5-[4-(6,6-dimethyl-5,6,7,8-tetrahydroquinazolin-4-yl)-2,3,4,5-tetrahydro-1,4-benzoxazepin-7-yl]pyridine-3-sulfonamide], the half-maximal inhibitory concentration (IC50) was at most 10 nM.

With `CC1(C)CCc2ncnc(N3CCOc4ccc(-c5cnc(N)c(S(=O)(=O)NC(C)(C)CN)c5)cc4C3)c2C1` [Example 403, 2-amino-N-(2-amino-1,1-dimethylethyl)-5-[4-(6,6-dimethyl-5,6,7,8-tetrahydroquinazolin-4-yl)-2,3,4,5-tetrahydro-1,4-benzoxazepin-7-yl]pyridine-3-sulfonamide], the IC50 fell in the range of 10 to 50 nM.

Turning to `CC1=Cc2ncnc(N3CCOc4ccc(-c5cnc(N)c(S(=O)(=O)NCC(C)(C)N)c5)cc4C3)c2CC1(C)C` [Example 405, 2-amino-N-(2-amino-2-methylpropyl)-5-[4-(6,6,7-trimethyl-5,6-dihydroquinazolin-4-yl)-2,3,4,5-tetrahydro-1,4-benzoxazepin-7-yl]pyridine-3-sulfonamide], the IC50 is at most 10 nM.

On to `CC(C)(N)CNS(=O)(=O)c1cc(-c2ccc3c(c2)CN(c2ncnc4c2CC(C)(C)CC4)CCO3)cnc1N` [Example 406, 2-amino-N-(2-amino-2-methylpropyl)-5-[4-(6,6-dimethyl-5,6,7,8-tetrahydroquinazolin-4-yl)-2,3,4,5-tetrahydro-1,4-benzoxazepin-7-yl]pyridine-3-sulfonamide], for which the IC50 was at most 10 nM.

The IC50 is the concentration that inhibits the measured activity by half.
